Data published in ChEMBL document CHEMBL4002623, “Synthesis and in vitro activity of dicationic indolyl diphenyl ethers as novel potent antibiotic agents against drug-resistant bacteria” (Bioorg Med Chem Lett, 2017).
In brackets after ≈: the same amount, converted by molar mass.

Key:
Staphylococcus aureus [1] = assay: Antibacterial activity against methicillin-sensitive Staphylococcus aureus ATCC 29213 by agar dilution method; assay type: functional
Staphylococcus aureus [2] = assay: Antibacterial activity against methicillin-resistant Staphylococcus aureus 09-13 by agar dilution method; assay type: functional
[3] = system: Staphylococcus epidermidis; assay: Antibacterial activity against methicillin-sensitive Staphylococcus epidermidis ATCC 12228 by agar dilution method; assay type: functional
[4] = system: Staphylococcus epidermidis; assay: Antibacterial activity against methicillin-resistant Staphylococcus epidermidis 09-3 by agar dilution method; assay type: functional
Enterococcus faecalis [5] = assay: Antibacterial activity against vancomycin-sensitive Enterococcus faecalis ATCC 29212 by agar dilution method; assay type: functional
Enterococcus faecalis [6] = assay: Antibacterial activity against vancomycin-resistant Enterococcus faecalis 09-9 by agar dilution method; assay type: functional
Enterococcus faecium [7] = assay: Antibacterial activity against vancomycin-resistant Enterococcus faecium ATCC 700221 by agar dilution method; assay type: functional
Escherichia coli [8] = assay: Antibacterial activity against extended-spectrum beta-lactamase-negative Escherichia coli ATCC 25922 by agar dilution method; assay type: functional
Escherichia coli [9] = assay: Antibacterial activity against extended-spectrum beta-lactamase-positive Escherichia coli 09-1 by agar dilution method; assay type: functional
Klebsiella pneumoniae [10] = assay: Antibacterial activity against extended-spectrum beta-lactamase-negative Klebsiella pneumoniae 7 by agar dilution method; assay type: functional
Klebsiella pneumoniae [11] = assay: Antibacterial activity against extended-spectrum beta-lactamase-positive Klebsiella pneumoniae 09-25 by agar dilution method; assay type: functional
Klebsiella pneumoniae [12] = assay: Antibacterial activity against Klebsiella pneumoniae ATCC BAA-2146 expressing NDM-1 by agar dilution method; assay type: functional
[13] = Cytotoxicity against HEK293T cells after 48 hrs by MTS assay; assay type: cell-based, HEK-293T; conditions: human
Enterococcus faecium [14] = assay: Antibacterial activity against vancomycin-sensitive Enterococcus faecium 09-10 by agar dilution method; assay type: functional
Staphylococcus aureus [15] = assay: Antibacterial activity against methicillin-resistant Staphylococcus aureus ATCC 33591 by agar dilution method; assay type: functional
Staphylococcus aureus [16] = assay: Antibacterial activity against methicillin-sensitive Staphylococcus aureus 15 by agar dilution method; assay type: functional
Staphylococcus aureus [17] = assay: Antibacterial activity against methicillin-sensitive Staphylococcus aureus 09-6 by agar dilution method; assay type: functional
[18] = system: Staphylococcus epidermidis; assay: Antibacterial activity against methicillin-sensitive Staphylococcus epidermidis 09-9 by agar dilution method; assay type: functional
Enterococcus faecalis [19] = assay: Antibacterial activity against vancomycin-resistant Enterococcus faecalis ATCC 51299 by agar dilution method; assay type: functional
Enterococcus faecalis [20] = assay: Antibacterial activity against vancomycin-sensitive Enterococcus faecalis 09-8 by agar dilution method; assay type: functional
Enterococcus faecium [21] = assay: Antibacterial activity against vancomycin-resistant Enterococcus faecium 05-8 by agar dilution method; assay type: functional
Escherichia coli [22] = assay: Antibacterial activity against extended-spectrum beta-lactamase-negative Escherichia coli 1515 by agar dilution method; assay type: functional
Escherichia coli [23] = assay: Antibacterial activity against extended-spectrum beta-lactamase-negative Escherichia coli 09-20 by agar dilution method; assay type: functional
Klebsiella pneumoniae [24] = assay: Antibacterial activity against extended-spectrum beta-lactamase-positive Klebsiella pneumoniae ATCC 700603 by agar dilution method; assay type: functional
Klebsiella pneumoniae [25] = assay: Antibacterial activity against extended-spectrum beta-lactamase-negative Klebsiella pneumoniae 09-8 by agar dilution method; assay type: functional
Pseudomonas aeruginosa [26] = assay: Antibacterial activity against Pseudomonas aeruginosa ATCC 27853 by agar dilution method; assay type: functional
Pseudomonas aeruginosa [27] = assay: Antibacterial activity against Pseudomonas aeruginosa PAO1 by agar dilution method; assay type: functional
Pseudomonas aeruginosa [28] = assay: Antibacterial activity against Pseudomonas aeruginosa 09-14 by agar dilution method; assay type: functional
[29] = system: Acinetobacter calcoaceticus; assay: Antibacterial activity against Acinetobacter calcoaceticus ATCC 19606 by agar dilution method; assay type: functional
Enterobacter cloacae = assay: Antibacterial activity against Enterobacter cloacae 45301 by agar dilution method; assay type: functional
Klebsiella aerogenes = assay: Antibacterial activity against Enterobacter aerogenes 45102 by agar dilution method; assay type: functional
Serratia marcescens = assay: Antibacterial activity against Serratia marcescens 41002 by agar dilution method; assay type: functional
Morganella morganii = assay: Antibacterial activity against Morganella morganii ATCC 25830 by agar dilution method; assay type: functional
Providencia rettgeri = assay: Antibacterial activity against Providencia rettgeri ATCC 31052 by agar dilution method; assay type: functional
Proteus vulgaris = assay: Antibacterial activity against Proteus vulgaris ATCC 29905 by agar dilution method; assay type: functional
Proteus mirabilis = assay: Antibacterial activity against Proteus mirabilis 09-1 by agar dilution method; assay type: functional
Salmonella typhi = assay: Antibacterial activity against Salmonella typhi H901 by agar dilution method; assay type: functional, Salmonella enterica subsp. enterica serovar Typhi; conditions: Salmonella enterica
Citrobacter freundii = assay: Antibacterial activity against Citrobacter freundii ATCC 43864 by agar dilution method; assay type: functional

Structure (SMILES) | MIC (Staphylococcus aureus [1]) | MIC (Staphylococcus aureus [2]) | MIC [3] | MIC [4] | MIC (Enterococcus faecalis [5]) | MIC (Enterococcus faecalis [6]) | MIC (Enterococcus faecium [7]) | MIC (Escherichia coli [8]) | MIC (Escherichia coli [9]) | MIC (Klebsiella pneumoniae [10]) | MIC (Klebsiella pneumoniae [11]) | MIC (Klebsiella pneumoniae [12]) | CC50 at 48 h [13] | MIC (Enterococcus faecium [14]) | MIC (Staphylococcus aureus [15]) | MIC (Staphylococcus aureus [16]) | MIC (Staphylococcus aureus [17]) | MIC [18] | MIC (Enterococcus faecalis [19]) | MIC (Enterococcus faecalis [20]) | further results
N=C(c1ccc2cc(-c3ccc(Oc4ccc(-c5cc6ccc(C(=N)N7CCOCC7)cc6[nH]5)cc4)cc3)[nH]c2c1)N1CCOCC1 | 2 µg/mL (≈ 3.2 µM) | 2 µg/mL (≈ 3.2 µM) | 2 µg/mL (≈ 3.2 µM) | 2 µg/mL (≈ 3.2 µM) | 8 µg/mL (≈ 12.8 µM) | 16 µg/mL (≈ 25.6 µM) | 2 µg/mL (≈ 3.2 µM) | 32 µg/mL (≈ 51.2 µM) | 128 µg/mL (≈ 205 µM) | > 128 µg/mL | > 128 µg/mL | > 128 µg/mL | 4.9 µg/mL (≈ 7.84 µM) | 4 µg/mL (≈ 6.4 µM) | 2 µg/mL (≈ 3.2 µM) | 1 µg/mL (≈ 1.6 µM) | 2 µg/mL (≈ 3.2 µM) | 2 µg/mL (≈ 3.2 µM) | 4 µg/mL (≈ 6.4 µM) | 8 µg/mL (≈ 12.8 µM) | MIC (Enterococcus faecium [21]): 8 µg/mL (≈ 12.8 µM); MIC (Escherichia coli [22]): 128 µg/mL (≈ 205 µM); MIC (Escherichia coli [23]): 64 µg/mL (≈ 102 µM); MIC (Klebsiella pneumoniae [24]): > 128 µg/mL; MIC (Klebsiella pneumoniae [25]): > 128 µg/mL; MIC (Pseudomonas aeruginosa [26]): > 128 µg/mL; MIC (Pseudomonas aeruginosa [27]): > 128 µg/mL; MIC (Pseudomonas aeruginosa [28]): > 128 µg/mL; MIC [29]: > 128 µg/mL; MIC (Enterobacter cloacae): > 128 µg/mL; MIC (Klebsiella aerogenes): > 128 µg/mL; MIC (Serratia marcescens): > 128 µg/mL; MIC (Morganella morganii): 16 µg/mL (≈ 25.6 µM); MIC (Providencia rettgeri): > 128 µg/mL; MIC (Proteus vulgaris): > 128 µg/mL; MIC (Proteus mirabilis): > 128 µg/mL; MIC (Salmonella typhi): 64 µg/mL (≈ 102 µM); MIC (Citrobacter freundii): > 128 µg/mL
N=C(c1ccc2cc(-c3ccc(Oc4ccc(-c5cc6ccc(C(=N)N7CCCC7)cc6[nH]5)cc4)cc3)[nH]c2c1)N1CCCC1 | 2 µg/mL (≈ 3.37 µM) | 1 µg/mL (≈ 1.69 µM) | 0.5 µg/mL (≈ 0.844 µM) | 1 µg/mL (≈ 1.69 µM) | 8 µg/mL (≈ 13.5 µM) | 32 µg/mL (≈ 54 µM) | 2 µg/mL (≈ 3.37 µM) | 16 µg/mL (≈ 27 µM) | 64 µg/mL (≈ 108 µM) | 64 to 128 µg/mL (≈ 108 to 216 µM) | 64 to 128 µg/mL (≈ 108 to 216 µM) | 64 to 128 µg/mL (≈ 108 to 216 µM) | 3.2 µg/mL (≈ 5.4 µM) | 8 µg/mL (≈ 13.5 µM) | 1 µg/mL (≈ 1.69 µM) | 1 µg/mL (≈ 1.69 µM) | 2 µg/mL (≈ 3.37 µM) | 2 µg/mL (≈ 3.37 µM) | 8 µg/mL (≈ 13.5 µM) | 32 µg/mL (≈ 54 µM) | MIC (Enterococcus faecium [21]): 8 µg/mL (≈ 13.5 µM); MIC (Escherichia coli [22]): 64 µg/mL (≈ 108 µM); MIC (Escherichia coli [23]): 64 µg/mL (≈ 108 µM); MIC (Klebsiella pneumoniae [24]): 128 µg/mL (≈ 216 µM); MIC (Klebsiella pneumoniae [25]): 64 µg/mL (≈ 108 µM); MIC (Pseudomonas aeruginosa [26]): > 128 µg/mL; MIC (Pseudomonas aeruginosa [27]): > 128 µg/mL; MIC (Pseudomonas aeruginosa [28]): > 128 µg/mL; MIC [29]: > 128 µg/mL; MIC (Enterobacter cloacae): 64 µg/mL (≈ 108 µM); MIC (Klebsiella aerogenes): > 128 µg/mL; MIC (Serratia marcescens): > 128 µg/mL; MIC (Morganella morganii): 16 µg/mL (≈ 27 µM); MIC (Providencia rettgeri): > 128 µg/mL; MIC (Proteus vulgaris): 64 µg/mL (≈ 108 µM); MIC (Proteus mirabilis): 128 µg/mL (≈ 216 µM); MIC (Salmonella typhi): 32 µg/mL (≈ 54 µM); MIC (Citrobacter freundii): 128 µg/mL (≈ 216 µM)
